From patent US8822413B2, “Bifunctional hormone having alpha-MSH activity and natriuretic peptide activity and uses thereof” (Theratechnologies Inc., priority 2007, dated 2014)
Bridge positions count the residues as written; N and C are the ends. Square brackets hold non-standard residues; d marks the D form. Peptide text beside a SMILES is read from it. Nle = CCCC[C@H](N)C(=O)O

These compounds were tested against T1, ANP receptor (Sus scrofa, UniProt F1SFW3) (assay: cGMP production in ANP receptor-expressing LLC-PK1 cells). Conditions: 30 min stimulation, 10^-6M through 10^-12M.
T1 construct: ANP receptor-expressing LLC-PK1 cells; endogenous in cells; host or cells: LLC-PK1 cells
T1 sequence (F1SFW3 29-1057): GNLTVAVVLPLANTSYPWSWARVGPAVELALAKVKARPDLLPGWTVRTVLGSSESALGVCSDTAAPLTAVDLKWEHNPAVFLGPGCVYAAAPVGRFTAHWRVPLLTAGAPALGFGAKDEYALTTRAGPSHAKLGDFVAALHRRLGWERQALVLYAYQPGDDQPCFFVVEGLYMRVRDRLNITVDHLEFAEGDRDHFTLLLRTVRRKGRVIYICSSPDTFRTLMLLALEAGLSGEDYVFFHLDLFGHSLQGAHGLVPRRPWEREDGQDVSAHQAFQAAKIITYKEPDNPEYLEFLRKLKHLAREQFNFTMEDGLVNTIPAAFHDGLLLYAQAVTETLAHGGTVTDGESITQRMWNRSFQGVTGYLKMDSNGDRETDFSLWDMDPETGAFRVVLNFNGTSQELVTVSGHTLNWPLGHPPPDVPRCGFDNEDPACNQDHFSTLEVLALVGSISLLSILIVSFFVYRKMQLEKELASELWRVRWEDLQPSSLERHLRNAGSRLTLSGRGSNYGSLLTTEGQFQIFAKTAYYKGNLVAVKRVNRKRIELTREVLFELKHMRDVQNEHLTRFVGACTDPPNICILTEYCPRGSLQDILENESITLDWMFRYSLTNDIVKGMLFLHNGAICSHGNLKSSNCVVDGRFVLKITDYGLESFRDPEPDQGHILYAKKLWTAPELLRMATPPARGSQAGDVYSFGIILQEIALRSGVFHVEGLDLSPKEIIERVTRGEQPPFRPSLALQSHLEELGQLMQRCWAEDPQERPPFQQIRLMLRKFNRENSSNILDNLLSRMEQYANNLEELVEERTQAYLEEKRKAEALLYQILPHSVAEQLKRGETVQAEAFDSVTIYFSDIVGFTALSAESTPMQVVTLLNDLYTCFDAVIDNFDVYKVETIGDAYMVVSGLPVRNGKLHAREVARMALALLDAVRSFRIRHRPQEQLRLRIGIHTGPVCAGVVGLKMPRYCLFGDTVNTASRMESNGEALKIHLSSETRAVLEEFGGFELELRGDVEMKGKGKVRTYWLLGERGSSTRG
Format: cell-based
Experimental: The bifunctional hormone was tested on ANP receptor-expressing LLC-PK1 cells and on MCR1 receptor-expressing B16-F1 cells. Both cell types were cultured 24 hours before the stimulation, in 96-well plates, at a concentration of 1.0×10^5 cells/ml. Before stimulation, cells were starved 2 hours in DPBS only and incubated 10 min in assay buffer (DPBS containing 20 mM HEPES, 0.1% BSA and 500 μM IBMX). The dose response curve of the bifunctional hormone was done for 30 minutes with concentrations of 10^−6M through 10^−12M. Supernatant was collected and cAMP (B16-F1) or cGMP (LLC-PK1) was measured with a radiolabeled kit from GE Healthcare Company.

In order of rising EC50:
1. CCCC[C@@H]1NC(=O)[C@H](CCCNC(=N)N)NC(=O)CNC(=O)CNC(=O)[C@H](Cc2ccccc2)NC(=O)[C@H](Cc2c[nH]cn2)NC(=O)[C@@H](NC(=O)[C@@H](N)CCCC)CCC(=O)NCCCC[C@@H](C(=O)N[C@@H](Cc2ccc(O)cc2)C(=O)N[C@@H](CCCNC(=N)N)C(=O)N[C@@H](Cc2c[nH]cn2)C(=O)N[C@H](Cc2ccccc2)C(=O)N[C@@H](CCCNC(=N)N)C(=O)N[C@@H](Cc2c[nH]c3ccccc23)C(N)=O)NC(=O)[C@H](CO)NC(=O)[C@H]([C@@H](C)CC)NC(=O)[C@H](CCCNC(=N)N)NC(=O)[C@H](CC(=O)O)NC1=O [SEQ ID NO: 29, Nle-[E-H-F-G-G-R-Nle-D-R-I-S-K]-Y-R-H-f-R-W-NH2] (H-[Nle]EHFGGR[Nle]DRISKYRH[dF]RW-NH2; lactam 2-13)  1430 nM
2. CC[C@H](C)[C@@H]1NC(=O)[C@H](CCCNC(=N)N)NC(=O)[C@H](CC(=O)O)NC(=O)[C@H](CCSC)NC(=O)[C@H](CCCNC(=N)N)NC(=O)CNC(=O)CNC(=O)[C@H](Cc2ccccc2)NC(=O)[C@@H](NC(=O)[C@H](CO)NC(=O)[C@H](CO)NC(=O)[C@H](CCCNC(=N)N)NC(=O)[C@H](CCCNC(=N)N)NC(=O)[C@H](CC(C)C)NC(=O)[C@@H](N)CO)CSSC[C@@H](C(=O)N[C@@H](CC(N)=O)C(=O)N[C@@H](CO)C(=O)N[C@@H](Cc2ccccc2)C(=O)N[C@@H](CCCNC(=N)N)C(=O)N[C@@H](Cc2ccc(O)cc2)C(=O)N[C@@H](Cc2c[nH]cn2)C(=O)N[C@H](Cc2ccccc2)C(=O)N[C@@H](CCCNC(=N)N)C(=O)N[C@@H](Cc2c[nH]c3ccccc23)C(N)=O)NC(=O)CNC(=O)[C@H](CC(C)C)NC(=O)CNC(=O)[C@H](CO)NC(=O)[C@H](CCC(N)=O)NC(=O)[C@H](C)NC(=O)CNC1=O [SEQ ID NO: 40, S-L-R-R-S-S-[C-F-G-G-R-M-D-R-I-G-A-Q-S-G-L-G-C]-N-S-F-R-Y-H-f-R-W-NH2]  7000 nM

Same assay, conditions: 30 min stimulation, 10^-6M through 10^-12M, NR = No response detected

In order of falling EC50:
1. CCCC[C@@H]1NC(=O)[C@H](CCCNC(=N)N)NC(=O)CNC(=O)CNC(=O)[C@H](Cc2ccccc2)NC(=O)[C@@H](NC(=O)[C@H](CCCC)NC(=O)[C@@H]2CCCN2C(=O)[C@H](CCCCN)NC(=O)CNC(=O)[C@H](Cc2c[nH]c3ccccc23)NC(=O)[C@H](CCCNC(=N)N)NC(=O)[C@@H](Cc2ccccc2)NC(=O)[C@H](Cc2c[nH]cn2)NC(C)=O)CSSC[C@@H](C(=O)N[C@@H](CC(N)=O)C(=O)N[C@@H](CO)C(=O)N[C@@H](Cc2ccccc2)C(=O)N[C@@H](CCCNC(=N)N)C(=O)N[C@@H](Cc2ccc(O)cc2)C(N)=O)NC(=O)CNC(=O)[C@H](CC(C)C)NC(=O)CNC(=O)[C@H](CO)NC(=O)[C@H](CCC(N)=O)NC(=O)[C@H](C)NC(=O)CNC(=O)[C@H]([C@@H](C)CC)NC(=O)[C@H](CCCNC(=N)N)NC(=O)[C@H](CC(=O)O)NC1=O [SEQ ID NO: 35, Ac-H-f-R-W-G-K-P-Nle-[C-F-G-G-R-Nle-D-R-I-G-A-Q-S-G-L-G-C]-N-S-F-R-Y-NH2] (Ac-H[dF]RWGKP[Nle]CFGGR[Nle]DRIGAQSGLGCNSFRY-NH2; disulfide 9-25)  216 nM
2. CCCC[C@@H]1NC(=O)[C@H](CCCNC(=N)N)NC(=O)CNC(=O)CNC(=O)[C@H](Cc2ccccc2)NC(=O)[C@H](Cc2c[nH]cn2)NC(=O)[C@@H](NC(=O)[C@H](CCCC)NC(=O)[C@@H]2CCCN2C(=O)[C@H](CCCCN)NC(=O)CNC(=O)[C@H](Cc2c[nH]c3ccccc23)NC(=O)[C@H](CCCNC(=N)N)NC(=O)[C@@H](Cc2ccccc2)NC(=O)[C@H](Cc2c[nH]cn2)NC(C)=O)CSSC[C@@H](C(=O)N[C@@H](Cc2ccc(O)cc2)C(=O)N[C@@H](CCCNC(=N)N)C(N)=O)NC(=O)[C@H](CO)NC(=O)[C@H]([C@@H](C)CC)NC(=O)[C@H](CCCNC(=N)N)NC(=O)[C@H](CC(=O)O)NC1=O [SEQ ID NO: 34, Ac-H-f-R-W-G-K-P-Nle-[C-H-F-G-G-R-Nle-D-R-I-S-C]-Y-R-NH2] (Ac-H[dF]RWGKP[Nle]CHFGGR[Nle]DRISCYR-NH2; disulfide 9-20)  132 nM
3. CC[C@H](C)[C@@H]1NC(=O)[C@H](CCCNC(=N)N)NC(=O)[C@H](CC(=O)O)NC(=O)[C@H](CCSC)NC(=O)[C@H](CCCNC(=N)N)NC(=O)CNC(=O)CNC(=O)[C@H](Cc2ccccc2)NC(=O)[C@H](Cc2c[nH]cn2)NC(=O)[C@@H](NC(=O)[C@H](CCSC)NC(=O)[C@@H]2CCCN2C(=O)[C@H](CCCCN)NC(=O)CNC(=O)[C@H](Cc2c[nH]c3ccccc23)NC(=O)[C@H](CCCNC(=N)N)NC(=O)[C@@H](Cc2ccccc2)NC(=O)[C@H](Cc2c[nH]cn2)NC(C)=O)CSSC[C@@H](C(=O)N[C@@H](Cc2ccc(O)cc2)C(=O)N[C@@H](CCCNC(=N)N)C(N)=O)NC(=O)[C@H](CO)NC1=O [SEQ ID NO: 31, Ac-H-f-R-W-G-K-P-M-[C-H-F-G-G-R-M-D-R-I-S-C]-Y-R-NH2] (Ac-H[dF]RWGKPMCHFGGRMDRISCYR-NH2; disulfide 9-20)  74.3 nM
4. CC[C@H](C)[C@@H]1NC(=O)[C@H](CCCNC(=N)N)NC(=O)[C@H](CC(=O)O)NC(=O)[C@H](CCSC)NC(=O)[C@H](CCCNC(=N)N)NC(=O)CNC(=O)CNC(=O)[C@H](Cc2ccccc2)NC(=O)[C@@H](NC(=O)[C@H](CO)NC(=O)[C@H](CO)NC(=O)[C@H](CCCNC(=N)N)NC(=O)[C@H](CCCNC(=N)N)NC(=O)CNC(=O)[C@H](Cc2c[nH]c3ccccc23)NC(=O)[C@H](CCCNC(=N)N)NC(=O)[C@@H](Cc2ccccc2)NC(=O)[C@H](Cc2c[nH]cn2)NC(C)=O)CSSC[C@@H](C(=O)N[C@@H](CC(N)=O)C(=O)N[C@@H](CO)C(=O)N[C@@H](Cc2ccccc2)C(=O)N[C@@H](CCCNC(=N)N)C(=O)N[C@@H](Cc2ccc(O)cc2)C(N)=O)NC(=O)CNC(=O)[C@H](CC(C)C)NC(=O)CNC(=O)[C@H](CO)NC(=O)[C@H](CCC(N)=O)NC(=O)[C@H](C)NC(=O)CNC1=O [SEQ ID NO: 39, Ac-H-f-R-W-G-R-R-S-S-[C-F-G-G-R-M-D-R-I-G-A-Q-S-G-L-G-C]-N-S-F-R-Y-NH2] (Ac-H[dF]RWGRRSSCFGGRMDRIGAQSGLGCNSFRY-NH2; disulfide 10-26)  52.1 nM
5. CC[C@H](C)[C@@H]1NC(=O)[C@H](CCCNC(=N)N)NC(=O)[C@H](CC(=O)O)NC(=O)[C@H](CCSC)NC(=O)[C@H](CCCNC(=N)N)NC(=O)CNC(=O)CNC(=O)[C@H](Cc2ccccc2)NC(=O)[C@@H](NC(=O)[C@H](CO)NC(=O)[C@H](CO)NC(=O)[C@H](CCCNC(=N)N)NC(=O)[C@H](CCCNC(=N)N)NC(=O)CNC(=O)[C@H](Cc2c[nH]c3ccccc23)NC(=O)[C@H](CCCNC(=N)N)NC(=O)[C@H](Cc2ccccc2)NC(=O)[C@H](Cc2c[nH]cn2)NC(=O)[C@H](CCC(=O)O)NC(=O)[C@@H](N)CCSC)CSSC[C@@H](C(=O)N[C@@H](CC(N)=O)C(=O)N[C@@H](CO)C(=O)N[C@@H](Cc2ccccc2)C(=O)N[C@@H](CCCNC(=N)N)C(=O)N[C@@H](Cc2ccc(O)cc2)C(N)=O)NC(=O)CNC(=O)[C@H](CC(C)C)NC(=O)CNC(=O)[C@H](CO)NC(=O)[C@H](CCC(N)=O)NC(=O)[C@H](C)NC(=O)CNC1=O [SEQ ID NO: 36, M-E-H-F-R-W-G-R-R-S-S-[C-F-G-G-R-M-D-R-I-G-A-Q-S-G-L-G-C]-N-S-F-R-Y-NH2] (H-MEHFRWGRRSSCFGGRMDRIGAQSGLGCNSFRY-NH2; disulfide 12-28)  33.1 nM
6. CC[C@H](C)[C@@H]1NC(=O)[C@H](CCCNC(=N)N)NC(=O)[C@H](CC(=O)O)NC(=O)[C@H](CCSC)NC(=O)[C@H](CCCNC(=N)N)NC(=O)CNC(=O)CNC(=O)[C@H](Cc2ccccc2)NC(=O)[C@@H](NC(=O)[C@H](CO)NC(=O)[C@H](CO)NC(=O)[C@H](CCCNC(=N)N)NC(=O)[C@H](CCCNC(=N)N)NC(=O)CNC(=O)[C@H](Cc2c[nH]c3ccccc23)NC(=O)[C@H](CCCNC(=N)N)NC(=O)[C@H](Cc2ccccc2)NC(=O)[C@H](Cc2c[nH]cn2)NC(C)=O)CSSC[C@@H](C(=O)N[C@@H](CC(N)=O)C(=O)N[C@@H](CO)C(=O)N[C@@H](Cc2ccccc2)C(=O)N[C@@H](CCCNC(=N)N)C(=O)N[C@@H](Cc2ccc(O)cc2)C(N)=O)NC(=O)CNC(=O)[C@H](CC(C)C)NC(=O)CNC(=O)[C@H](CO)NC(=O)[C@H](CCC(N)=O)NC(=O)[C@H](C)NC(=O)CNC1=O [SEQ ID NO: 38, Ac-H-F-R-W-G-R-R-S-S-[C-F-G-G-R-M-D-R-I-G-A-Q-S-G-L-G-C]-N-S-F-R-Y-NH2] (Ac-HFRWGRRSSCFGGRMDRIGAQSGLGCNSFRY-NH2; disulfide 10-26)  6.9 nM
